Data from US20020193425A1, “Cancer chemopreventative compounds and compositions and methods of treating cancers” (priority 2001, published 2002).

What was measured:
K562 = experiment: NSE expression (monocyte marker); type: cell-based; settings: 4 days
Procedure: (§1) Cell lines were tested using a 4-day incubation protocol, unless otherwise specified.
(§2) 2) NBT/NSE/SE. Evaluation of NBT reduction was used to assess the ability of sample-treated cells to produce superoxide when challenged with TPA. A 1:1 (v/v) mixture of a cell suspension (10^6 cells) and TPA/NBT solution (2 mg/ml NBT and 1 μg/ml TPA in phosphate buffer saline (PBS)) was incubated for 1 h at 37° C. Then, cells were smeared on glass slides, and counterstained with 0.3% (w/v) safranin O in methanol. Positive cells reduce NBT yielding intracellular black-blue formazan deposits. NSE/SE are monocytic/granulocytic esterases that can be visualized by cytochemical staining using commercially available kits (α-Naphthyl Acetate Esterase and Naphthol As-D Chloroacetate Esterase kits, Sigma Chemical Co., St. Louis, Mo.). Positive-stained cells were quantified by microscopic examination of >200 cells. Results were expressed as a percentage of positive cells.
(§3) Concentration-dependent effect of brusatol on: (a) NBT-reduction (monocyte/granulocyte marker) of HL-60, K562, NB4, U937, and BV173 and (b) NSE expression (monocyte marker) in K562, Kasumi-1, NB4, and BV173 cells, respectively. Data points are the mean of duplicate samples.

BV173 = experiment: NSE expression (monocyte marker); type: cell-based; settings: 4 days
Procedure: as §1, §2, §3

NB4 = experiment: NSE expression (monocyte marker); type: cell-based; settings: 4 days
Procedure: as §1, §2, §3

Kasumi-1 = experiment: NSE expression (monocyte marker); type: cell-based; settings: 4 days
Procedure: as §1, §2, §3

RS4;11 = experiment: Cytotoxicity, viability by Trypan blue exclusion; settings: four days
Procedure: (§4) All cell lines were maintained in suspension culture using RPMI 1640 medium supplemented with 10% heat-inactivated fetal bovine serum, 100 units of penicillin/ml and 100 μg of streptomycin/ml at 37° C. in a humidified atmosphere of 5% CO2 in air.
(§5) Cellular viability was monitored by Trypan blue exclusion.
(§6) ^aViability was determined by Trypan blue exclusion in duplicate samples. […] Results are expressed as median inhibitory cell concentrations of two independent experiments (±standard deviations).

[1] = Cytotoxicity, viability by Trypan blue exclusion; settings: human, RS4;11 cells, Cytotoxicity (IC50, ng/ml), four days
Procedure: as §4, §5, §6

JB6 cells = settings: dose-dependent manner; cited from earlier work
[2] = Cytotoxicity, viability by Trypan blue exclusion; settings: human
Procedure: (§7) Human blood (20 ml) was collected in heparinized sterile tubes and white blood cells were separated using Ficoll reagent (8 ml/5 ml blood diluted in 15 ml Hank's buffered solution). After centrifugation at low speed (1500 rpm) for 30 min, the white coat was removed and washed 3-times with Hank's buffered solution. The cell pellet was resuspended in RPMI 1640 medium supplemented with 10% FBS. This preparation contained >90% lymphocytes and <5% monocytes, as determined by Wright-Giemsa staining.
as §5, §6

U937 = experiment: Cytotoxicity, viability by Trypan blue exclusion; settings: four days
Procedure: (§8) HL-60, K562, U937, Reh and Daudi cells were obtained from the American Type Culture Collection (Rockville, Md.). Kasumi-1, NB4, BV173, SUPB13, and RS4;11 cells were provided by the Section of Hematology/Oncology, University of Illinois College of Medicine, Chicago, Ill. All cell lines were maintained in suspension culture using RPMI 1640 medium supplemented with 10% heat-inactivated fetal bovine serum, 100 units of penicillin/ml and 100 μg of streptomycin/ml at 37° C. in a humidified atmosphere of 5% CO2 in air. All cells were routinely tested for mycoplasma contamination.
(§9) Cellular viability was monitored by Trypan blue exclusion. Inhibition of [3H]thymidine incorporation into DNA was determined to assess the level of cell proliferation as well as DNA synthesis inhibition. […] The filters were counted using a Microbeta™ liquid scintillation counter (Wallac, Turku, Finland) with scintillation fluid. Finally, the percentage of [3H]thymidine incorporation per 10^6 cells was calculated by dividing the dpm of sample-treated cells by the dpm of DMSO-treated cells.
as §6

[3] = Cytotoxicity, viability by Trypan blue exclusion; settings: human, U937 cells, Cytotoxicity (IC50, ng/ml), four days
Procedure: as §8, §9, §6

HL-60 = experiment: NBT-reduction differentiation assay, leukemic panel; type: cell-based, human; settings: 4 days
Procedure: as §1, §2, §3

SUPB13 = experiment: Cytotoxicity, viability by Trypan blue exclusion; settings: four days
Procedure: as §4, §5, §6

[4] = Cytotoxicity, viability by Trypan blue exclusion; settings: human, SUPB13 cells, Cytotoxicity (IC50, ng/ml), four days
Procedure: as §4, §5, §6

HL-60 cells = experiment: In vivo hollow fiber test
Procedure: As a preliminary test of in vivo efficacy, a hollow fiber study was performed. The in vivo hollow fiber test was performed using literature procedures with some modifications (see M. G. Hollingshead et al., Life Sic., 57, pages 131-141 (1995)). HL-60 cells were cultured in RPMI 1640 medium and collected by centrifugation and resuspended in conditioned medium at a concentration of 2.5×10^6 cells/ml. Fibers filled with cells were incubated in 6-well plates overnight at 37° C. in a 5% CO2 atmosphere. Female athymic NCr nu/nu mice at 5-6 weeks of age were obtained from Frederick Cancer Research Facility. Each mouse hosted up to 6 fibers, which were cultured in two physiologic compartments. For intraperitoneal implants, a small incision was made through the skin and musculature of the dorsal abdominal wall, the fiber samples were inserted into the peritoneal cavity in a craniocaudal direction, and the incision was closed with skin staples. For subcutaneous implants, a small skin incision was made at the nape of the neck to allow insertion of an 11-gauge tumor implant trocar. The trocar, containing the hollow fiber samples, was inserted caudally through the subcutaneous tissues and fibers were deposited during withdrawal of the trocar. The incision was closed with a skin staple.
In preliminary studies, cell growth was assessed with fibers containing various cell densities. […] For treatment protocols, brusatol was dissolved in PBS. Mice were randomized into 7 groups: PBS vehicle control group (6 mice per group); 0.25, 0.5, 1.25, 2.5, 5, 12.5 mg/kg of brusatol (3 mice per group). Test compound brusatol was administered once daily by intraperitoneal injection from day 3-6 after implantation. Body weights were measured daily.
On day 7, mice were sacrificed and fibers were retrieved. […] Aliquots (150 μl) of extracted MTT formazan were transferred to Individual wells of 96-well plates and assessed for optical density at a wavelength of 540 nm. The effect of the treatment regimen was determined by the net growth percentage of the cells relative to change in […].

[5] = test system: patients with various types of solid tumors; settings: phase I clinical trials; cited from earlier work
in vitro [6] = settings: human
Procedure: as §7, §5, §6

[7] = human beings; single intravenous injection of 3 mg/m^2; cited from earlier work
in vitro [8] = settings: human; remark: listed apart in the source
Procedure: as §8
Cellular viability was monitored by Trypan blue exclusion. Inhibition of [3H]thymidine incorporation into DNA was determined to assess the level of cell proliferation as well as DNA synthesis inhibition. Cells were treated with test samples for four days and then placed into 96-well plates (100 μl) and treated with [3H]thymidine (0.5 μCi/ml, 65 Ci/mmol) for 18 h at 37° C. in a 5% CO2 incubator. Cells then were collected on glass fiber filters using a TOMTEC Harvester 96®. The filters were counted using a Microbeta™ liquid scintillation counter (Wallac, Turku, Finland) with scintillation fluid. Finally, the percentage of [3H]thymidine incorporation per 10^6 cells was calculated by dividing the dpm of sample-treated cells by the dpm of DMSO-treated cells.
as §6

COC(=O)[C@@]12OC[C@]34[C@H]([C@@H](O)[C@@H]1O)[C@@]1(C)CC(=O)C(O)=C(C)[C@@H]1C[C@H]3OC(=O)[C@H](OC(=O)C=C(C)C)[C@@H]24 [compound 1, brusatol]
upregulated expression of NSE (K562): approximately 50%
upregulated expression of NSE (BV173): approximately 35%
upregulated expression of NSE (NB4): approximately 50%
upregulated expression of NSE (Kasumi-1): approximately 50%
Cytotoxicity (IC50, ng/ml) (RS4;11): 25 ± 2 ng/mL
IC50 at 4 days [1]: < 0.025 µg/mL
TPA-induced anchorage-independent growth of JB6 cells (JB6 cells): inhibits
viability at 3 days, 100 ng/ml ([2]; peripheral blood lymphocytes stimulated with concanavalin A): ~90%
IC50 at 3 days ([2]; peripheral human lymphocytes): > 0.1 µg/mL
Cytotoxicity (IC50, ng/ml) (U937): 12.5 ± 1.1 ng/mL
IC50 at 4 days [3]: < 0.025 µg/mL
NBT-reduction, peak induction (HL-60): 75%
Cytotoxicity (IC50, ng/ml) (SUPB13): 20 ± 1.2 ng/mL
IC50 at 4 days [4]: < 0.025 µg/mL
inhibition at s.c. site (HL-60 cells; HL-60 hollow fibers, 5 mg/kg): 80.8%
inhibitory percentage at s.c. site (HL-60 cells; HL-60 hollow fibers, doses from 0.25 mg/kg, below 5 mg/kg): around 25%
lethality (HL-60 cells; mice, 12.5 mg/kg): lethal

COC(=O)[C@@]12OC[C@]34[C@H]([C@@H](O)[C@@H]1O)[C@@]1(C)CC(=O)C(O)=C(C)[C@@H]1C[C@H]3OC(=O)[C@H](OC(=O)/C=C(\C)C(C)C)[C@@H]24 [compound 2, bruceantin]
hematologic toxicity [5]: moderate to insignificant
IC50 at 3 days (in vitro [6]): > 0.05 µg/mL
blood level [7]: 22 ng/mL
IC50 at 4 days (in vitro [8]): > 0.05 µg/mL
